Measured values from PMC5267519, “Evaluation of a Novel Renewable Hepatic Cell Model for Prediction of Clinical CYP3A4 Induction Using a Correlation-Based Relative Induction Score Approach” (Drug Metabolism and Disposition, 2017).
Where “and” joins values, the source holds several entries; their conditions need not be identical. Equal values may be shown once. Read-outs that look alike come from different tables or passages of the source.

How the values were obtained:
CYP3A4 [1] = settings: for Predicted AUC change using HepatoCells (range of lots): three lots, mRNA or activity basis not given
Text: The resulting fitting equation was used to calculate predicted in vivo AUC change for each compound. […] Prediction accuracy using HepatoCells was also compared with prediction accuracy using primary human hepatocytes.

CYP3A4 [2] = settings: for RIS Based on Enzyme Activity: RIS = (Emax × Cmax,ub)/(EC50 + Cmax,ub); for RIS values based on enzyme activity (range stated for group of compounds): range over named compounds and three lots
CYP3A4 [3] = settings: cited from earlier work
CYP3A4 mRNA [4] = assay: Concentration-dependent CYP3A4 mRNA induction in HepatoCells; settings: for Emax / EC50: CYP3A4 mRNA fold increase, NI = no induction observed at tested concentration; for Emax: 3 consecutive days treatment, quinidine: only observed maximum fold induction; for RIS Based on mRNA: RIS = (Emax × Cmax,ub)/(EC50 + Cmax,ub); for EC50: human, nominal concentrations; for RIS Based on mRNA, Mean: mean of lots 2B, 3A, 3B; for RIS values based on CYP3A4 mRNA level (range stated for group of compounds): range over named compounds and three lots; for CYP3A4 mRNA expression induction response (in words): three lots of HepatoCells, eight concentrations
Experimental: (§1) Cryopreserved HepatoCells were thawed quickly in a 37°C water bath and transferred to Corning Culture Medium for HepatoCells supplemented with 10% fetal bovine serum and Pen/Strep (plating medium). After the cryo-freezing media was removed by centrifugation at 150g for 10 minutes, the cell pellet was resuspended in plating media and cell count was performed with trypan blue. Cells were then seeded in a Corning BioCoat Collagen I–coated plate (500,000 cells/well in 24-well plate or 80,000 cells/well in 96-well plate), and plates were incubated in a 37°C incubator with 5% CO2. […] Cells were then returned to the incubator for overnight culture.
(§2) Stock solutions of test compounds were prepared by dissolving each compound in DMSO and serially diluting the solutions in DMSO. Final working solutions were freshly prepared daily by diluting the 1000× stock solutions in culture medium. Three lots of HepatoCells culture were treated with eight concentrations of test compounds. Both enzymatic activity (testosterone 6β hydroxylase activity) and mRNA expression were measured as endpoints using LC-MS/MS and real-time reverse-transcription polymerase chain reaction, respectively.

CYP3A4 mRNA [5] = settings: for RIS Based on mRNA, Mean: human
Experimental: as §1, §2

CYP3A4 [6] = settings: hepatocytes; cited from earlier work
MRP2 = molecular target: T1, MRP2 (Homo sapiens, UniProt Q92887); assay: CDFDA staining of bile canaliculi in HepatoCells sandwich culture; format: cell-based; settings: pretreatment with inhibitor
T1 construct: the functional efflux transporter MRP2 is expressed and localized at the apical surface of HepatoCells; host or cells: Corning HepatoCells, collagen/Matrigel sandwich culture
Experimental: On day 1, HepatoCells were plated on collagen-coated dishes. Four to six hours after seeding, cell monolayer was overlaid with Matrigel solution at 0.25 mg/mL (as described above). Daily medium change was performed from day 2 to day 4 using fresh Corning Culture Medium for HepatoCells. On day 5, the sandwich cultures were incubated with carboxy-dichlorofluorescein diacetate (CDFDA), a multidrug-resistant protein 2 (MRP2) substrate that is metabolized by cytosolic esterases. The fluorescent CDFDA metabolite accumulated in bile canalicular lumens was visualized using fluorescence microscopy.

CYP1A2 [7] = assay: CYP1A2 induction response to prototypical inducer, enzyme activity, HepatoCells; settings: human, probe phenacetin 100 µM
Experimental: as §1

CYP1A2 [8] = assay: CYP1A2 induction response to prototypical inducer, enzyme activity, primary human hepatocytes; settings: cryopreserved primary human hepatocytes, probe phenacetin 100 µM
[9] = Solubility at test concentrations in induction assay; format: physicochemical; settings: at 33 μM and 100 μM
Experimental: Only curve fitting with correlation coefficient (R^2) > 0.85 is accepted. At high concentrations for some compounds, if toxicity or insolubility becomes obvious, such data are excluded from curve fitting. Following the same approach as described by [Zhang et al. (2014)] and [Fahmi and Ripp (2010)], for data sets that show no apparent plateau, the observed maximum fold increase is accepted as Emax to avoid extrapolating too much above the experimental values and EC50 is calculated accordingly from the fitting curve.

[10] = Lot 2B HepatoCells, RIS calibration curve
[11] = Lot 3A HepatoCells, RIS calibration curve
[12] = Lot 3B HepatoCells, RIS calibration curve
[13] = clinical DDI, decrease in AUC of victim drug (midazolam or nonmidazolam), ref Zhang et al., 2014
[14] = three lots of HepatoCells, eight concentrations

T1 sequence (Q92887 whole entry): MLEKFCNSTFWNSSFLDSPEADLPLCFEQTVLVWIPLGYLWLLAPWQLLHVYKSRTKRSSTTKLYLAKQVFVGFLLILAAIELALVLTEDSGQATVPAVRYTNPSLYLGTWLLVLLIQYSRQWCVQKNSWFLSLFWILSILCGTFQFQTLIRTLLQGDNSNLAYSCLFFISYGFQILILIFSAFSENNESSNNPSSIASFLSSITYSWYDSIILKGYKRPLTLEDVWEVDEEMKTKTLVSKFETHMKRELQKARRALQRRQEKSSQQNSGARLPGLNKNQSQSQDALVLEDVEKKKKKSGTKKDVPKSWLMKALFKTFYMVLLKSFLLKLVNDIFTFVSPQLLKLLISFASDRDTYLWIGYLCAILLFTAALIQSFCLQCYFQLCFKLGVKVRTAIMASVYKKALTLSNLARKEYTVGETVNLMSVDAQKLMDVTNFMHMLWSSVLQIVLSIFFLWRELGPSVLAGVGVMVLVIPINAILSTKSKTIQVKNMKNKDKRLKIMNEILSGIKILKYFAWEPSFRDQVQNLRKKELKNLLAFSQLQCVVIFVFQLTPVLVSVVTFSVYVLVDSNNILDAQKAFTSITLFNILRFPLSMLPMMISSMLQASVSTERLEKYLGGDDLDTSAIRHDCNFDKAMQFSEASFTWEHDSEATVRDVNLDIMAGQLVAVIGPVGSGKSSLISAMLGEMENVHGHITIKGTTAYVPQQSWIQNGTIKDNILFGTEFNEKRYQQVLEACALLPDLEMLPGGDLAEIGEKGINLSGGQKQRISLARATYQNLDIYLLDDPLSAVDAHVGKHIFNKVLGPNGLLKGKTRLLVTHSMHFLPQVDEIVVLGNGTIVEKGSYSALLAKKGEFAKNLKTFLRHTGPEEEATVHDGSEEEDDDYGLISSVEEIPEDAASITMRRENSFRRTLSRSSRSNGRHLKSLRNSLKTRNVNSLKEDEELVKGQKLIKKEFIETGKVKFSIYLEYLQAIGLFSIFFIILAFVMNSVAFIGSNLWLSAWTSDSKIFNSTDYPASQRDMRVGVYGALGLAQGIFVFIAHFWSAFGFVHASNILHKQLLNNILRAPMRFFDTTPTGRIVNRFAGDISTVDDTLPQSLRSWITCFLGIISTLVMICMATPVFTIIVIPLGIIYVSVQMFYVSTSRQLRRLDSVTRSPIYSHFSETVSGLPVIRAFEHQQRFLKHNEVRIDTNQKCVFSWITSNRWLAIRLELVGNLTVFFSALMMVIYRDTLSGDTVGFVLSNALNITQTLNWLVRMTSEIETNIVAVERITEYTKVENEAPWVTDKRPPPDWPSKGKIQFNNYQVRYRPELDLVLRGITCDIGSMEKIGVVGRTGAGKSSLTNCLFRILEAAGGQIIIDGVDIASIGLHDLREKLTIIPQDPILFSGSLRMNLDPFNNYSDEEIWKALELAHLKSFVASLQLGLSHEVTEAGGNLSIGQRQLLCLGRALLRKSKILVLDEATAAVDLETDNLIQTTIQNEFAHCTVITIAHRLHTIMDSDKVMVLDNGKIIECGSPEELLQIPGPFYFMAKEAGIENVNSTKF

Predicted % AUC Change Based on Activity (CYP3A4 [1]; [10]) [%] | Predicted % AUC Change Based on mRNA (CYP3A4 [1]; [10]) [%] | Predicted % AUC Change Based on Activity (CYP3A4 [1]; [11]) [%] | Predicted % AUC Change Based on mRNA (CYP3A4 [1]; [11]) [%] | Predicted % AUC Change Based on Activity (CYP3A4 [1]; [12]) [%] | Predicted % AUC Change Based on mRNA (CYP3A4 [1]; [12]) [%] | RIS Based on Enzyme Activity (CYP3A4 [2]; Lot 2B) | RIS Based on Enzyme Activity (CYP3A4 [2]; Lot 3A) | RIS Based on Enzyme Activity (CYP3A4 [2]; Lot 3B) | RIS Based on Enzyme Activity, Mean (CYP3A4 [2]; mean of lots 2B, 3A, 3B) | Emax (CYP3A4 mRNA [4]; Lot 2B HepatoCells) [Fold] | RIS Based on mRNA (CYP3A4 mRNA [4]; Lot 2B) | Emax (CYP3A4 mRNA [4]; Lot 3A HepatoCells) [Fold] | RIS Based on mRNA (CYP3A4 mRNA [4]; Lot 3A) | Emax (CYP3A4 mRNA [4]; Lot 3B HepatoCells) [Fold] | RIS Based on mRNA (CYP3A4 mRNA [4]; Lot 3B) | EC50 (CYP3A4 mRNA [4]; EC50, Lot 2B HepatoCells) [µM] | EC50 (CYP3A4 mRNA [4]; EC50, Lot 3A HepatoCells) [µM] | EC50 (CYP3A4 mRNA [4]; EC50, Lot 3B HepatoCells) [µM] | RIS Based on mRNA, Mean (CYP3A4 mRNA [4]) | SMILES | further results
92 | 86 | 92 | 87 | 87 | 95 | 0.67 | 0.8 | 0.9 | 0.8 | 16 | 0.76 | 10 | 0.77 | 14 | 1.3 | 108 | 65 | 53 | 0.9 | NC(=O)N1c2ccccc2C=Cc2ccccc21 [Carbamazepine] | RIS values based on enzyme activity (range stated for group of compounds) (CYP3A4 [2]): 0.7–24; Observed % AUC Change (CYP3A4 [3]; [13]): 94%; RIS values based on CYP3A4 mRNA level (range stated for group of compounds) (CYP3A4 mRNA [4]): 0.8–25
– | – | – | – | – | – | – | – | – | – | – | – | – | – | – | – | – | – | – | – | Clc1ccccc1C(c1ccccc1)(c1ccccc1)n1ccnc1 [Clotrimazole] | Predicted % AUC Change Based on Activity (CYP3A4 [1]): 0%; Predicted % AUC Change Based on mRNA (CYP3A4 [1]): 0.00%; CYP3A4 mRNA expression induction response (in words) (CYP3A4 mRNA [5]): induced an increase; RIS Based on mRNA, Mean (CYP3A4 mRNA [5]): 0.0044; CYP3A4 enzyme activity induction response (in words) (CYP3A4 [2]): did not increase; Observed % AUC Change (CYP3A4 [3]; human, in vivo): 9.7%; Emax, CYP3A4 enzyme activity (CYP3A4 [6]): 3.1- to 3.3 fold
– | – | – | – | – | – | – | – | – | – | – | – | – | – | – | – | – | – | – | – | C[C@H]1O[C@@H](O[C@H]2[C@@H](O)C[C@H](O[C@H]3[C@@H](O)C[C@H](O[C@H]4CC[C@@]5(C)[C@H](CC[C@@H]6[C@@H]5C[C@@H](O)[C@]5(C)[C@@H](C7=CC(=O)OC7)CC[C@]65O)C4)O[C@@H]3C)O[C@@H]2C)C[C@H](O)[C@@H]1O [Digoxin] | CYP3A4 enzyme activity induction response (in words) (CYP3A4 [2]; [14]): no induction response; CYP3A4 mRNA expression induction response (in words) (CYP3A4 mRNA [4]): no induction response
– | – | – | – | – | – | – | – | – | – | – | – | – | – | – | – | – | – | – | – | CCOC(=O)c1ncn2c1CN(C)C(=O)c1cc(F)ccc1-2 [Flumazenil] | CYP3A4 enzyme activity induction response (in words) (CYP3A4 [2]; [14]): no induction response; CYP3A4 mRNA expression induction response (in words) (CYP3A4 mRNA [4]): no induction response
– | – | – | – | – | – | – | – | – | – | – | – | – | – | – | – | – | – | – | – | CN(C)C(=O)CCSC(SCCC(=O)O)c1cccc(/C=C/c2ccc3ccc(Cl)cc3n2)c1 (centres unmarked) [MK571] | effect on CDFDA staining of bile canaliculi (MRP2): inhibited the specific CDFDA staining of bile canaliculi
– | – | – | – | – | – | – | – | – | – | – | – | – | – | – | – | – | – | – | – | CN(Cc1cnc2nc(N)nc(N)c2n1)c1ccc(C(=O)N[C@@H](CCC(=O)O)C(=O)O)cc1 [Methotrexate] | CYP3A4 enzyme activity induction response (in words) (CYP3A4 [2]; [14]): no induction response; CYP3A4 mRNA expression induction response (in words) (CYP3A4 mRNA [4]): no induction response
0.11 | 1.7 | 0.002 | 0.14 | 0.017 | 0.35 | 0.015 | 0.009 | 0.007 | 0.0103 | 24 | 0.069 | 45 | 0.073 | 27 | 0.079 | 13 | 23 | 13 | 0.074 | COc1ccc2[nH]c([S+]([O-])Cc3ncc(C)c(OC)c3C)nc2c1 (centres unmarked) [Omeprazole] | Predicted AUC change using HepatoCells (range of lots) (CYP3A4 [1]): 0.1–1.7%; RIS values based on enzyme activity (range stated for group of compounds) (CYP3A4 [2]): 0.0004–0.09; Observed % AUC Change (CYP3A4 [3]; [13]): −25%; RIS values based on CYP3A4 mRNA level (range stated for group of compounds) (CYP3A4 mRNA [4]): 0.0012–0.16; fold induction at 72 h, 50 µM (CYP1A2 [7]): 32.4; fold induction at 72 h, 50 µM (CYP1A2 [8]): 28.7
96 | 98 | 96 | 98 | 97 | 95 | 1.8 | 2.3 | 2.4 | 2.2 | 23 | 7.5 | 38 | 12.1 | 35 | 8.5 | 15 | 16 | 23 | 9.4 | O=C1NC(=O)C(c2ccccc2)(c2ccccc2)N1 [Phenytoin] | Predicted AUC change using HepatoCells (range of lots) (CYP3A4 [1]): 95–98%; RIS values based on enzyme activity (range stated for group of compounds) (CYP3A4 [2]): 0.7–24; Observed % AUC Change (CYP3A4 [3]; [13]): 94%; RIS values based on CYP3A4 mRNA level (range stated for group of compounds) (CYP3A4 mRNA [4]): 0.8–25
17 | 36 | 23 | 35 | 34 | 29 | 0.12 | 0.20 | 0.28 | 0.2 | 33 | 0.28 | 31 | 0.37 | 15 | 0.21 | 3.3 | 2.3 | 2 | 0.29 | CCc1ccc(CCOc2ccc(CC3SC(=O)NC3=O)cc2)nc1 (centres unmarked) [Pioglitazone] | Predicted AUC change using enzyme activity data (range of lots) (CYP3A4 [1]; three lots of HepatoCells): 17–34%; Predicted AUC change using mRNA data (range of lots) (CYP3A4 [1]; three lots of HepatoCells): 29–36%; solubility [9]: insoluble; Observed % AUC Change (CYP3A4 [3]; [13]): 26%
– | – | – | – | – | – | – | – | – | – | – | – | – | – | – | – | – | – | – | – | C=C[C@H]1C[N@@]2CC[C@H]1C[C@@H]2[C@@H](O)c1ccnc2ccc(OC)cc12 [Quinidine] | CYP3A4 mRNA induction over solvent vehicle control (CYP3A4 mRNA [5]): one- to twofold increase; CYP3A4 enzyme activity induction over solvent vehicle control (CYP3A4 [2]): one- to twofold increase; CYP3A4 enzyme activity induction response (in words) (CYP3A4 [2]): did not cause a concentration-dependent increase
– | – | – | – | – | – | 1.5 | 1.4 | 1.2 | 1.3 | 31 | 1.2 | 53 | 1.8 | 38 | 1.1 | 23 | 28 | 32 | 1.4 | O=C1C(CC[S+]([O-])c2ccccc2)C(=O)N(c2ccccc2)N1c1ccccc1 (centres unmarked) [Sulfinpyrazone] | –

SMILES | Predicted % AUC Change Based on Activity (CYP3A4 [1]; [10]) [%] | Predicted % AUC Change Based on mRNA (CYP3A4 [1]; [10]) [%] | Predicted % AUC Change Based on Activity (CYP3A4 [1]; [11]) [%] | Predicted % AUC Change Based on mRNA (CYP3A4 [1]; [11]) [%] | Predicted % AUC Change Based on Activity (CYP3A4 [1]; [12]) [%] | Predicted % AUC Change Based on mRNA (CYP3A4 [1]; [12]) [%] | RIS Based on Enzyme Activity (CYP3A4 [2]; Lot 2B) | RIS Based on Enzyme Activity (CYP3A4 [2]; Lot 3A) | RIS Based on Enzyme Activity (CYP3A4 [2]; Lot 3B) | RIS Based on Enzyme Activity, Mean (CYP3A4 [2]; mean of lots 2B, 3A, 3B) | Emax (CYP3A4 mRNA [4]; Lot 2B HepatoCells) [Fold] | RIS Based on mRNA (CYP3A4 mRNA [4]; Lot 2B) | Emax (CYP3A4 mRNA [4]; Lot 3A HepatoCells) [Fold] | RIS Based on mRNA (CYP3A4 mRNA [4]; Lot 3A) | Emax (CYP3A4 mRNA [4]; Lot 3B HepatoCells) [Fold] | RIS Based on mRNA (CYP3A4 mRNA [4]; Lot 3B) | EC50 (CYP3A4 mRNA [4]; EC50, Lot 2B HepatoCells) [µM] | EC50 (CYP3A4 mRNA [4]; EC50, Lot 3A HepatoCells) [µM] | EC50 (CYP3A4 mRNA [4]; EC50, Lot 3B HepatoCells) [µM] | RIS Based on mRNA, Mean (CYP3A4 mRNA [4]) | further results
CN(C/C=C/C#CC(C)(C)C)Cc1cccc2ccccc12 [Terbinafine] | – | – | – | – | – | – | – | – | – | – | 20 | – | 24 | – | 21 | – | – | – | – | – | Predicted % AUC Change Based on Activity (CYP3A4 [1]): 29% and 15%; Predicted AUC change using enzyme activity data (range of lots) (CYP3A4 [1]): 15–29%; Predicted AUC change using mRNA data (range of lots) (CYP3A4 [1]): 8–19%; RIS Based on mRNA, Mean (CYP3A4 mRNA [5]): 0.19; RIS Based on Enzyme Activity, Mean (CYP3A4 [2]; human): 0.2; Observed % AUC Change (CYP3A4 [3]; human, in vivo): 25%
